A short description of the data set: Human HepG2 cell viability assay in 384 well format. The data set is classed as toxicity, cell-based. On the set-up: dose 125 nL, time 70.5 hour; concentration not given beside the values. Particulars: HepG2 cells, read-out: Inhibition.
Consider `Cc1cc(NC(=O)CN(CC(C)O)c2ccccc2)on1` (centres undefined), for which the cytotoxicity at 70.5 h is -3.15%.

Regarding `O=C1CC(NS(=O)(=O)c2ccc(F)c(Cl)c2)CN1` (centres undefined), the cytotoxicity at 70.5 h worked out at 0.519%. The value for `COc1cccc(COCC(=O)N2CCCC(n3ccnc3C)C2)c1` (centres undefined) was -15.7%.

With `CCN(CC)C(=O)c1nc2c(s1)CCN(C(=O)Nc1ccccc1)CC2`, the cytotoxicity at 70.5 h turned out to be 5.97%.

As for `CCOC(=O)C1CCCN(Cc2cc(C#N)n(C)c2C)C1` (centres undefined), the cytotoxicity at 70.5 h is -11.7%. As for `O=S(=O)(c1c(F)cccc1F)N1CCC(Cn2cccn2)CC1`, the cytotoxicity at 70.5 h was -11.8%. `CS(=O)(=O)NC1CCCN(C(=O)c2cccnc2)C1` (centres undefined): the cytotoxicity at 70.5 h was -8.57%. Regarding `CCn1ccnc1CN1C[C@@H](NC(=O)C2CC2)[C@H](c2ccc(C)cc2)C1`, the cytotoxicity at 70.5 h came to 23.8%.

For the molecule `Cc1noc(C)c1-c1cncc(C2CCCN2Cc2ncccc2F)n1` (centres undefined), the cytotoxicity at 70.5 h is -6.52%. Regarding `Cc1nnn2c1COCC(CNCc1nccs1)C2` (centres undefined), the cytotoxicity at 70.5 h is -10.3%. Take `CC(=O)N[C@@H]1CN(C(=O)CC2CCOCC2)C[C@H]1O`: the cytotoxicity at 70.5 h is -1.61%. With `c1ccc(-n2ccc(CNC3CCc4ncnn4C3)n2)cc1` (centres undefined), the cytotoxicity at 70.5 h was -5.75%. On to `Cn1cnnc1-c1cncc(NCc2cccc3c2OCO3)c1`, for which the cytotoxicity at 70.5 h is -1.67%. In the case of `O=C1C[C@H]2[C@@H](CCN2C(=O)c2ccoc2)N1CCN1CCOCC1`, the cytotoxicity at 70.5 h is -7.58%. Turning to `Cc1cc(CN2CCN(C(=O)NC(C)Cn3cccn3)CC2)no1` (centres undefined), the cytotoxicity at 70.5 h was -9.58%. Consider `CC(N(C)Cc1nc2c(cnn2C)c(=O)[nH]1)C(C)(C)C` (centres undefined), for which the cytotoxicity at 70.5 h stood at 21%. Take `Cc1ncccc1C(=O)NCc1ccccc1CN(C)Cc1ccco1`: the cytotoxicity at 70.5 h was -1.05%. The value for `Cc1oncc1C(=O)N[C@@H]1CN(c2ncccn2)C[C@@H]2CCCO[C@@H]21` was -10.7%.

Take `COCCN(Cc1cccc(OCCO)c1)Cc1ccccc1F`: the cytotoxicity at 70.5 h was -2.88%. For `NC(=O)CCn1ccc(NC(=O)C2(c3ccc(F)cc3)CCC2)n1`, the cytotoxicity at 70.5 h turned out to be 1.99%. For `COCC1CN(C(=O)c2ccco2)Cc2nccn2C1` (centres undefined), the cytotoxicity at 70.5 h is -9.63%. As for `CCc1cc(O)n2nc(C3CCN(C(=O)c4cccnc4)CC3)cc2n1`, the cytotoxicity at 70.5 h turned out to be 21.2%.

Take `CSC(C)(C)CNC(=O)NCC[S+]([O-])c1ccccc1F` (centres undefined): the cytotoxicity at 70.5 h was -9.35%. In the case of `CC(C)n1nc2c(cc1=O)CN(c1ncnc3ccsc13)CC2` it was 13.9%. With `CC(OCC(F)(F)F)C(=O)N1CCCCC1` (centres undefined), the cytotoxicity at 70.5 h was 0.611%. Regarding `Cc1nccn1-c1nccnc1C1CCN(Cc2ccc(F)cc2)CC1`, the cytotoxicity at 70.5 h is 24.1%. `Cc1ccccc1CNc1ccccc1OCC(=O)N1CCOCC1`: the cytotoxicity at 70.5 h was -3.34%. For `CCS(=O)(=O)N1CC[C@H]2[C@H]1CC(=O)N2Cc1csc(C)n1`, the cytotoxicity at 70.5 h was -1.34%. On to `Cc1nnc2n1CCN(CCOc1cccc(C#N)c1)C2`, for which the cytotoxicity at 70.5 h was -4.21%. As for `O=C(NCCO)NCC(c1ccccc1)N1CCc2sccc2C1` (centres undefined), the cytotoxicity at 70.5 h is -13.1%. In the case of `CC(c1ccccn1)N(C)Cc1cccc(C(=O)Nc2nccn2C)c1` (centres undefined) it was 8.36%. With `Cc1cccc(C)c1NC(=O)CNC(C)Cc1ccsc1` (centres undefined), the cytotoxicity at 70.5 h turned out to be 32.9%. Consider `CN(C)C(=O)C1CCCN1CCCNC(=O)c1ccccc1Cl` (centres undefined), for which the cytotoxicity at 70.5 h was 4.52%. For `CCS(=O)(=O)N1CC[C@H]2CO[C@H](CN(C)C)[C@H]2C1`, the cytotoxicity at 70.5 h is 9.44%. Regarding `CC(C)(C)c1n[nH]c(C2CN(C(=O)C3=COCCC3)CCO2)n1` (centres undefined), the cytotoxicity at 70.5 h is -6.48%.

On to `Cc1nc(N2CCN(C(=O)C(C)(C)C)CC2)cc(-n2cnc(C)c2C)n1`, for which the cytotoxicity at 70.5 h was 13%. The value for `Cc1cccc(CN2CCc3ncnc(-c4ccsc4)c3CC2)n1` was -13.6%; that for `Cc1ccc(C(CNC(=O)NCc2cc[nH]n2)N2CCOCC2)o1` (centres undefined) was -14.3%; that for `CN1CCC(N(C)C[C@H]2CC[C@@H](Cc3ccc4occc4c3)O2)CC1` was 3.05%.

Turning to `CS(=O)(=O)NC1CCN(C(=O)NCCc2ccccc2F)CC1`, the cytotoxicity at 70.5 h is -5.64%. For `Cc1ccc(Br)c(S(=O)(=O)NCc2ccnn2C)c1`, the cytotoxicity at 70.5 h is -5.04%.

For the molecule `O=c1c2ccccc2nc2n1C(CSc1ccc(Cl)cc1)CN2` (centres undefined), the cytotoxicity at 70.5 h turned out to be 2.49%. With `O=C(c1ncccn1)N1C[C@@H]2CN(CC3CC3)CCO[C@@H]2C1`, the cytotoxicity at 70.5 h was -13.4%. The value for `O=C(N[C@@H]1CN(Cc2cccc3[nH]ccc23)C[C@H]1O)c1cscn1` was -4.99%. Take `O=C(c1cc(-n2cccc2)ccc1Cl)N1CCC2(CC1)OCCO2`: the cytotoxicity at 70.5 h turned out to be 2.22%. As for `CC(=O)NCC(=O)N1C[C@@H](C)[C@@]2(CCN(c3ccsc3)C2=O)C1`, the cytotoxicity at 70.5 h was -10.5%. In the case of `COc1ccc(C(C)=O)cc1CN1CCn2cccc2C1C` (centres undefined), the cytotoxicity at 70.5 h is -6.89%. Consider `CCNC(=O)[C@@H]1C[C@H](N)CN1C(=O)c1cccc(CCC(C)(C)O)c1`, for which the cytotoxicity at 70.5 h is -5.42%. Take `CCOc1ccc(CC(=O)N2CCCC(n3nc(C)nc3C)C2)cc1` (centres undefined): the cytotoxicity at 70.5 h was -5.27%.

Consider `O=C(C1CCOCC1)N1CC[C@H](O)[C@@H]1Cc1cccnc1`, for which the cytotoxicity at 70.5 h was -0.0587%. With `CCOCc1nn(C)c2c1CN(Cc1cccs1)CC2`, the cytotoxicity at 70.5 h was -7.58%. With `CN(CC(N)=O)Cc1ccc(F)cc1Cl`, the cytotoxicity at 70.5 h is -5.08%. For `CCCc1nc(C(=O)N2CCN(C(=O)OC)CC2)cs1`, the cytotoxicity at 70.5 h is -4.71%. Take `CCCC(C(=O)NCCc1nc(C)cs1)N(C)C` (centres undefined): the cytotoxicity at 70.5 h amounted to 2.88%. Turning to `CCNC(=O)N[C@H]1C[C@@H](Cc2cc(CN3CCCCC3)on2)C1(C)C`, the cytotoxicity at 70.5 h is -4.13%. The value for `CCCc1n[nH]c(C2CN(C(=O)C3=COCCC3)CCO2)n1` (centres undefined) was -16.3%; that for `FC(F)(F)c1cc(N2CCc3ncnc(NC4CC4)c3CC2)ncn1` was 5.67%. Turning to `O=C(c1ccco1)N1CCc2onc(Cn3cccn3)c2C1`, the cytotoxicity at 70.5 h was -7.44%.

For the molecule `CCN(C(=O)Nc1cccnc1OC)C1CC1`, the cytotoxicity at 70.5 h was -9.27%.

Regarding `CCc1cc(NCCNC(C)=O)nc(N2CCCC2)n1`, the cytotoxicity at 70.5 h stood at 23.3%. Turning to `Cc1oc(-c2ccc(F)cc2F)nc1CN1C[C@@H](C)O[C@@H](C)C1`, the cytotoxicity at 70.5 h came to 15.1%. Regarding `CCn1cc(C(=O)NCC2(C(N)=O)CCOCC2)c2ccccc21`, the cytotoxicity at 70.5 h turned out to be 0.306%. In the case of `Cn1cc2c(n1)C(COCC1CC1)CN(Cc1ccccn1)C2` (centres undefined), the cytotoxicity at 70.5 h was found to be 15.6%. Turning to `O=C(c1ccco1)N1CCCC2(CN(Cc3ccc(F)cc3)CCO2)C1` (centres undefined), the cytotoxicity at 70.5 h is -1.46%. `CCCn1cnnc1CNC1CCSC1` (centres undefined): the cytotoxicity at 70.5 h was -7.63%.

Regarding `Cc1nn(C)c(C)c1C1CCCN1C(=O)c1ccc2c(c1)OCCO2` (centres undefined), the cytotoxicity at 70.5 h is -7.1%. In the case of `CN(C)C(=O)CCCNC(=O)C(c1cccc(F)c1)N(C)C` (centres undefined), the cytotoxicity at 70.5 h turned out to be 3.05%. The value for `CCSc1ccc(NC(=O)N2CCCC2c2ccncc2)cn1` (centres undefined) was -8.21%. In the case of `c1ccn(Cc2nnc3n2CCCN(c2cnccn2)C3)c1`, the cytotoxicity at 70.5 h turned out to be 16%. Regarding `COc1ccc(F)c(NCc2ccc(C(=O)N(C)C)[nH]2)c1`, the cytotoxicity at 70.5 h is 15.8%. For the molecule `CC(=O)c1c(F)cccc1N1CCC(CS(N)(=O)=O)CC1`, the cytotoxicity at 70.5 h was -10.5%. As for `c1cnc2c(C3CCN(Cc4ccsc4)CC3)n[nH]c2n1`, the cytotoxicity at 70.5 h is 42.8%. As for `CC(C)OCCSc1nnnn1C1CCOCC1`, the cytotoxicity at 70.5 h was -8.16%. With `COCc1cc(N(C)Cc2cnccn2)nc(C(C)(C)C)n1`, the cytotoxicity at 70.5 h is -12.2%. The value for `Cc1cccc(C(=O)NCc2ccnc(N(C)C)c2)n1` was 0.0987%; that for `Cc1nc(C)c(C(=O)N2CCCC(c3cnccn3)C2)s1` (centres undefined) was -2.44%; that for `CCN(Cc1noc(CC(C)C)n1)Cc1ccccc1Cl` was 1.69%.

As for `Cc1cc(CN2CC[C@H]3C[C@H](C)O[C@@H]3C2)no1`, the cytotoxicity at 70.5 h was -13.8%.

As for `O=C(c1ccnnc1)N1C[C@H](OCC2CC2)[C@H]2COC[C@H]21`, the cytotoxicity at 70.5 h was -13.5%. In the case of `CN(C)c1ncnc2c1CCN(C(=O)CN1CCCCC1)C2` it was -7.37%; in that of `COc1nc2c(cc1C(=O)NCCc1nc(C)c(C(=O)O)s1)CCC2`, 10%; in that of `CCCN(C(=O)c1ocnc1C)C1CCCN(Cc2ccccc2)C1` (centres undefined), -5.56%. For `CC(C)Cc1nc(CS(C)(=O)=O)n(-c2ccccn2)n1`, the cytotoxicity at 70.5 h was -7.54%.

In the case of `CNC(=O)c1cc2c(nc1NCC1CC1)CCN(c1ncccn1)CC2`, the cytotoxicity at 70.5 h was -20.8%.

`O=C1Nc2ccccc2C1C1CCN(C(=O)C2CC2)CC1` (centres undefined): the cytotoxicity at 70.5 h is -6.49%. Regarding `COc1ccc(-n2cccn2)cc1S(=O)(=O)N1C[C@H](C2CC2)[C@@H](N)C1`, the cytotoxicity at 70.5 h is -3.3%. In the case of `CC(CNC(=O)N1CCSCC1)Cc1cccs1` (centres undefined), the cytotoxicity at 70.5 h was 4.95%.

Take `Cc1ccc(CN2C[C@@H]3COC[C@H](NS(C)(=O)=O)[C@@H]3C2)o1`: the cytotoxicity at 70.5 h was -12.4%. Take `Cn1c(CN2CC[C@](C)(O)C(C)(C)C2)cc2ccccc21`: the cytotoxicity at 70.5 h was -5.32%. As to `COc1cccc(CCn2ccnc2-c2cn(C3CCNCC3)nn2)c1`, the cytotoxicity at 70.5 h was 28.6%.

On to `CN(C)C(=O)Cc1ccccc1NCc1cc(C#N)ccc1F`, for which the cytotoxicity at 70.5 h is -2.64%.

Consider `O=C(NCC1(c2cccc(F)c2)CC1)N1CCC2(CCOC2)C1` (centres undefined), for which the cytotoxicity at 70.5 h was -7.28%. `Cc1cnn(CC2CCCN2C(=O)c2cc(C)no2)c1` (centres undefined): the cytotoxicity at 70.5 h was determined as 25.6%. In the case of `CNc1nnc(CCn2nc(C)c(Br)c2C)s1`, the cytotoxicity at 70.5 h was 19.6%. As to `Cc1ncncc1C(=O)NCCn1nc2ccccn2c1=O`, the cytotoxicity at 70.5 h is -3.41%.

As for `CCc1c(C)nc(C)nc1N1C[C@@H](CN(CC)CCO)[C@@H](CO)C1`, the cytotoxicity at 70.5 h was 10.3%. As to `O=C(Nc1nc(-c2ccccc2)ns1)N1CCN(C(=O)C2CC2)CC1`, the cytotoxicity at 70.5 h is -0.566%.

For `Cc1nnc(CCNC(=O)C2CC(=O)N(C(C)(C)C)C2)s1` (centres undefined), the cytotoxicity at 70.5 h stood at 26.2%.

As for `Cc1cccc(-n2c(C)cc(C(=O)NS(C)(=O)=O)c2C)c1`, the cytotoxicity at 70.5 h was -14.6%.

Values taken from ChEMBL document CHEMBL3507680, “University of Dundee, Gates Library screen for HepG2 cell viability”.
